Assay results from ChEMBL document CHEMBL5214900, “Design, Synthesis, and Biological Evaluation of Membrane-Active Bakuchiol Derivatives as Effective Broad-Spectrum Antibacterial Agents” (J Med Chem, 2021).
≈ marks a conversion by molar mass, not a printed value.

Assays:
Staphylococcus aureus [1] = experiment: Antibacterial activity against Staphylococcus aureus ATCC 29213 assessed as fold increase in MIC incubated for 24 hrs in presence of 2.5 mM Ca2+ by CLSI based broth dilution method; assay type: functional
Acinetobacter baumannii [2] = experiment: Antibacterial activity against Acinetobacter baumannii ATCC 17978 assessed as fold increase in MIC incubated for 24 hrs in presence of 1 mM Mg2+ by CLSI based broth dilution method; assay type: functional
Staphylococcus aureus [3] = experiment: Antibacterial activity against Staphylococcus aureus NCTC10442 assessed as fold increase in MIC incubated for 24 hrs in presence of 2.5 mM Ca2+ by CLSI based broth dilution method; assay type: functional
Staphylococcus aureus [4] = experiment: Antibacterial activity against Staphylococcus aureus ATCC 29213 assessed as fold increase in MIC incubated for 24 hrs in presence of 1 mM Mg2+ by CLSI based broth dilution method; assay type: functional
Klebsiella pneumoniae [5] = experiment: Antibacterial activity against Klebsiella pneumoniae ATCC 10031 assessed as inhibition of bacterial growth incubated for 24 hrs by CLSI based broth dilution method; assay type: functional
Acinetobacter baumannii [6] = experiment: Antibacterial activity against Acinetobacter baumannii ATCC 17978 assessed as inhibition of bacterial growth incubated for 24 hrs by CLSI based broth dilution method; assay type: functional
Acinetobacter baumannii [7] = experiment: Antibacterial activity against Acinetobacter baumannii ATCC 17978 assessed as fold increase in MIC incubated for 24 hrs in presence of 4.5 mM K+ by CLSI based broth dilution method; assay type: functional
Escherichia coli [8] = experiment: Antibacterial activity against Escherichia coli ATCC 25922 assessed as fold increase in MIC incubated for 24 hrs in presence of 2.5 mM Ca2+ by CLSI based broth dilution method; assay type: functional
Pseudomonas aeruginosa [9] = experiment: Antibacterial activity against Pseudomonas aeruginosa ATCC 9027 assessed as inhibition of bacterial growth incubated for 24 hrs by CLSI based broth dilution method; assay type: functional
Staphylococcus aureus [10] = experiment: Antibacterial activity against methicillin-resistant Staphylococcus aureus NCTC10442 assessed as inhibition of bacterial growth incubated for 24 hrs by CLSI based broth dilution method; assay type: functional
Escherichia coli [11] = experiment: Antibacterial activity against Escherichia coli ATCC 25922 assessed as fold increase in MIC incubated for 24 hrs in presence of 140 mM Na+ by CLSI based broth dilution method; assay type: functional
Staphylococcus aureus [12] = experiment: Antibacterial activity against Staphylococcus aureus NCTC10442 assessed as fold increase in MIC incubated for 24 hrs in presence of 4.5 mM K+ by CLSI based broth dilution method; assay type: functional
Staphylococcus aureus [13] = experiment: Antibacterial activity against Staphylococcus aureus ATCC 29213 assessed as fold increase in MIC incubated for 24 hrs in presence of 140 mM Na+ by CLSI based broth dilution method; assay type: functional
Staphylococcus aureus [14] = experiment: Antibacterial activity against methicillin-resistant Staphylococcus aureus N315 assessed as inhibition of bacterial growth incubated for 24 hrs by CLSI based broth dilution method; assay type: functional
[15] = Hemolytic activity in rabbit RBC measured after 1 hrs by multimode reader assay; assay type: toxicity, cell-based, Oryctolagus cuniculus, Erythrocyte; conditions: rabbit red blood cells (erythrocytes)
Escherichia coli [16] = experiment: Antibacterial activity against Escherichia coli ATCC 25922 assessed as inhibition of bacterial growth incubated for 24 hrs by CLSI based broth dilution method; assay type: functional
Acinetobacter baumannii [17] = experiment: Antibacterial activity against Acinetobacter baumannii ATCC 17978 assessed as fold increase in MIC incubated for 24 hrs in presence of 140 mM Na+ by CLSI based broth dilution method; assay type: functional
Staphylococcus aureus [18] = experiment: Antibacterial activity against Staphylococcus aureus NCTC10442 assessed as fold increase in MIC incubated for 24 hrs in presence of 1 mM Mg2+ by CLSI based broth dilution method; assay type: functional
Escherichia coli [19] = experiment: Antibacterial activity against Escherichia coli ATCC 25922 assessed as fold increase in MIC incubated for 24 hrs in presence of 1 mM Mg2+ by CLSI based broth dilution method; assay type: functional
Staphylococcus aureus [20] = experiment: Antibacterial activity against Staphylococcus aureus ATCC 29213 assessed as inhibition of bacterial growth incubated for 24 hrs by CLSI based broth dilution method; assay type: functional
Klebsiella pneumoniae [21] = experiment: Antibacterial activity against Klebsiella pneumoniae ATCC 14581 assessed as inhibition of bacterial growth incubated for 24 hrs by CLSI based broth dilution method; assay type: functional
Staphylococcus aureus [22] = experiment: Antibacterial activity against Staphylococcus aureus NCTC10442 assessed as fold increase in MIC incubated for 24 hrs in presence of 140 mM Na+ by CLSI based broth dilution method; assay type: functional
Staphylococcus aureus [23] = experiment: Antibacterial activity against Staphylococcus aureus ATCC 29213 assessed as fold increase in MIC incubated for 24 hrs in presence of 4.5 mM K+ by CLSI based broth dilution method; assay type: functional
Escherichia coli [24] = experiment: Antibacterial activity against Escherichia coli ATCC 25922 assessed as fold increase in MIC incubated for 24 hrs in presence of 4.5 mM K+ by CLSI based broth dilution method; assay type: functional
Acinetobacter baumannii [25] = experiment: Antibacterial activity against Acinetobacter baumannii ATCC 17978 assessed as fold increase in MIC incubated for 24 hrs in presence of 2.5 mM Ca2+ by CLSI based broth dilution method; assay type: functional
Acinetobacter baumannii [26] = experiment: Antibacterial activity against Acinetobacter baumannii R2889 assessed as inhibition of bacterial growth incubated for 24 hrs by CLSI based broth dilution method; assay type: functional
[27] = Dissociation constant, pKa of compound by potentiometric titration method; assay type: physicochemical
Escherichia coli [28] = experiment: Induction of drug resistance in Escherichia coli ATCC 25922 assessed as fold change in MIC measured after 19 passages by CLSI based broth dilution method; assay type: functional
Escherichia coli [29] = experiment: Bactericidal activity against Escherichia coli ATCC 25922 assessed as log reduction in viable bacteria at 8 times MIC measured after 2 hrs by time-killing assay; assay type: functional
Pseudomonas aeruginosa [30] = experiment: Antibacterial activity against Pseudomonas aeruginosa ATCC 9027 in C57BL/6 mouse model of bacterial keratitis assessed as log reduction in number of viable bacterial colonies in infected cornea at 3 mg/ml, TOP administered 4 times a day for 3 consecutive days; assay type: functional; conditions: time 3 day
Staphylococcus aureus [31] = experiment: Induction of drug resistance in Staphylococcus aureus ATCC 29213 assessed as fold change in MIC measured after 19 passages by CLSI based broth dilution method; assay type: functional
Staphylococcus aureus [32] = experiment: Antibacterial activity against Staphylococcus aureus ATCC 29213 in C57BL/6 mouse model of bacterial keratitis assessed as log reduction in number of viable bacterial colonies in infected cornea at 50 mg/ml, TOP administered 4 times a day for 3 consecutive days; assay type: functional; conditions: time 3 day
Staphylococcus aureus [33] = experiment: Bactericidal activity against Staphylococcus aureus ATCC 29213 assessed as log reduction in viable bacteria at 8 times MIC measured after 8 hrs by time-killing assay; assay type: functional

Row | Compound | fold change (FC) (Staphylococcus aureus [1]) | fold change (FC) (Acinetobacter baumannii [2]) | fold change (FC) (Staphylococcus aureus [3]) | fold change (FC) (Staphylococcus aureus [4]) | fold change (FC) (Acinetobacter baumannii [7]) | fold change (FC) (Escherichia coli [8]) | MIC (Staphylococcus aureus [10]) | fold change (FC) (Escherichia coli [11]) | fold change (FC) (Staphylococcus aureus [12]) | fold change (FC) (Staphylococcus aureus [13]) | MIC (Staphylococcus aureus [14]) | HC50 at 1 h [15] | MIC (Escherichia coli [16]) | fold change (FC) (Acinetobacter baumannii [17]) | fold change (FC) (Staphylococcus aureus [18]) | fold change (FC) (Escherichia coli [19]) | MIC (Staphylococcus aureus [20]) | fold change (FC) (Staphylococcus aureus [22]) | fold change (FC) (Staphylococcus aureus [23]) | fold change (FC) (Escherichia coli [24]) | also measured
1 | C=C[C@@](C)(/C=C/c1ccc(OCCCCN(C)CCCN(C)CCCNC)cc1)CCC=C(C)C | <2 | <2 | <2 | <2 | <2 | <2 | 1.56 µg/mL (≈ 3.22 µM) | <2 | <2 | <2 | 0.78 µg/mL (≈ 1.61 µM) | 56.6 µg/mL | 1.56 µg/mL (≈ 3.22 µM) | <2 | <2 | <2 | 1.56 µg/mL (≈ 3.22 µM) | <2 | <2 | <2 | MIC (Klebsiella pneumoniae [5]): 1.56 µg/mL (≈ 3.22 µM); MIC (Acinetobacter baumannii [6]): 3.12 µg/mL (≈ 6.46 µM); MIC (Pseudomonas aeruginosa [9]): 3.12 µg/mL (≈ 6.46 µM); MIC (Klebsiella pneumoniae [21]): 1.56 µg/mL (≈ 3.22 µM); fold change (FC) (Acinetobacter baumannii [25]): <2; MIC (Acinetobacter baumannii [26]): 3.12 µg/mL (≈ 6.46 µM)
2 | C=C[C@@](C)(/C=C/c1ccc(OCCCCN2CCSCC2)cc1)CCC=C(C)C |  |  |  |  |  |  | > 50 µg/mL |  |  |  | > 50 µg/mL | > 200 µg/mL | > 100 µg/mL |  |  |  | > 50 µg/mL |  |  |  | pKa [27]: 8.41
3 | C=C[C@@](C)(/C=C/c1ccc(OCCCCN2CCCNCCNCCCNCC2)cc1)CCC=C(C)C | <2 | <2 | <2 | <2 | <2 | <2 | 0.78 µg/mL (≈ 1.53 µM) | <2 | <2 | <2 | 0.78 µg/mL (≈ 1.53 µM) | 62.7 µg/mL | 3.12 µg/mL (≈ 6.12 µM) | <2 | <2 | <2 | 0.78 µg/mL (≈ 1.53 µM) | <2 | <2 | <2 | MIC (Klebsiella pneumoniae [5]): 1.56 µg/mL (≈ 3.05 µM); MIC (Acinetobacter baumannii [6]): 3.12 µg/mL (≈ 6.12 µM); MIC (Pseudomonas aeruginosa [9]): 12.5 µg/mL (≈ 24.5 µM); MIC (Klebsiella pneumoniae [21]): 3.12 µg/mL (≈ 6.12 µM); fold change (FC) (Acinetobacter baumannii [25]): <2; MIC (Acinetobacter baumannii [26]): 3.12 µg/mL (≈ 6.12 µM)
4 | C=C[C@@](C)(/C=C/c1ccc(OCCCCNC(=N)N)cc1)CCC=C(C)C |  |  |  |  |  |  | 3.12 µg/mL (≈ 8.46 µM) |  |  |  | 1.56 µg/mL (≈ 4.22 µM) | 75.7 µg/mL | 25 µg/mL (≈ 67.6 µM) |  |  |  | 3.12 µg/mL (≈ 8.46 µM) |  |  |  | pKa [27]: 11.4
5 | CC1(C)S[C@@H]2[C@H](NC(=O)[C@H](N)c3ccc(O)cc3)C(=O)N2[C@H]1C(=O)O [AMOXICILLIN] |  |  |  |  |  |  |  |  |  |  |  |  |  |  |  |  |  |  |  |  | fold change (FC) (Escherichia coli [28]): 16; log(activity) (Escherichia coli [29]): 1.22
6 | C=C[C@@](C)(/C=C/c1ccc(OCCCCN2CCNCCNCCNCCNCC2)cc1)CCC=C(C)C | <2 | <2 | <2 | <2 | <2 | <2 | 1.56 µg/mL (≈ 2.97 µM) | <2 | <2 | <2 | 0.78 µg/mL (≈ 1.48 µM) | 75.2 µg/mL | 6.25 µg/mL (≈ 11.9 µM) | <2 | <2 | <2 | 1.56 µg/mL (≈ 2.97 µM) | <2 | <2 | <2 | fold change (FC) (Acinetobacter baumannii [25]): <2
7 | COc1c(N2CCNC(C)C2)c(F)cc2c(=O)c(C(=O)O)cn(C3CC3)c12 (stereo unspecified) [GATIFLOXACIN] |  |  |  |  |  |  |  |  |  |  |  |  |  |  |  |  |  |  |  |  | log(activity) (Pseudomonas aeruginosa [30]): 3.15
8 | CCn1cc(C(=O)O)c(=O)c2cc(F)c(N3CCNCC3)cc21 |  |  |  |  |  |  |  |  |  |  |  |  |  |  |  |  |  |  |  |  | fold change (FC) (Staphylococcus aureus [31]): 32
9 | C=C[C@@](C)(/C=C/c1ccc(OCCCCNCCN(CCN)CCN)cc1)CCC=C(C)C | <2 | <2 | <2 | <2 | <2 | <2 | 0.78 µg/mL (≈ 1.71 µM) | <2 | <2 | <2 | 0.78 µg/mL (≈ 1.71 µM) | 32.9 µg/mL | 3.12 µg/mL (≈ 6.84 µM) | <2 | <2 | <2 | 0.78 µg/mL (≈ 1.71 µM) | <2 | <2 | <2 | MIC (Klebsiella pneumoniae [5]): 1.56 µg/mL (≈ 3.42 µM); MIC (Acinetobacter baumannii [6]): 6.25 µg/mL (≈ 13.7 µM); MIC (Pseudomonas aeruginosa [9]): 3.12 µg/mL (≈ 6.84 µM); MIC (Klebsiella pneumoniae [21]): 1.56 µg/mL (≈ 3.42 µM); fold change (FC) (Acinetobacter baumannii [25]): <2; MIC (Acinetobacter baumannii [26]): 6.25 µg/mL (≈ 13.7 µM)
10 | CN[C@H](CC(C)C)C(=O)N[C@H]1C(=O)N[C@@H](CC(N)=O)C(=O)N[C@H]2C(=O)N[C@H]3C(=O)N[C@H](C(=O)N[C@H](C(=O)O)c4cc(O)cc(O)c4-c4cc3ccc4O)[C@H](O)c3ccc(c(Cl)c3)Oc3cc2cc(c3O[C@@H]2O[C@H](CO)[C@@H](O)[C@H](O)[C@H]2O[C@H]2C[C@](C)(N)[C@H](O)[C@H](C)O2)Oc2ccc(cc2Cl)[C@H]1O [VANCOMYCIN] |  |  |  |  |  |  | 1.56 µg/mL (≈ 1.08 µM) |  |  |  | 1.56 µg/mL (≈ 1.08 µM) |  |  |  |  |  | 0.78 µg/mL (≈ 0.538 µM) |  |  |  | log(activity) (Staphylococcus aureus [32]): 6.05; log(activity) (Staphylococcus aureus [33]): 1.22
11 | C=C[C@@](C)(/C=C/c1ccc(OCCCCN)cc1)CCC=C(C)C |  |  |  |  |  |  | 1.56 µg/mL (≈ 4.76 µM) |  |  |  | 0.78 µg/mL (≈ 2.38 µM) | 65.9 µg/mL | 12.5 µg/mL (≈ 38.2 µM) |  |  |  | 1.56 µg/mL (≈ 4.76 µM) |  |  |  | pKa [27]: 9.54
